# pIC50: −log10 of the molar value.
# System: 855422-203-R-J1-PDC complex spheroid viability
# Assay: Anticancer human tumor 855422-203-R-J1-PDC patient-derived bladder carcinoma cell line growth inhibition [POLQ]
# Conditions: for pIC50: curve of first compound; for viability, T/C: stronger effect = lower value
# Outline: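 Patient-derived tumour cells were co-cultured with HUVEC and mesenchymal stem cells as multicellular spheroids at 37 °C. They were treated with POLQ inhibitors (novobiocin, ART-558, RP6685) alone or combined with other agents. Top concentrations were at or near clinical Cmax (otherwise 10 microM; SN-38 at 1 microM), decreasing in half-log steps.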
# [1] = second compound 0.0316 µM, first compound 0.0316 µM
# [2] = second compound 0.0316 µM, first compound 0.1 µM
# [3] = second compound 0.0316 µM, first compound 0.316 µM
# [4] = second compound 0.0316 µM, first compound 1 µM
# [5] = second compound 0.0316 µM, first compound 3.16 µM
# [6] = second compound 0.0316 µM, first compound 10 µM
# [7] = second compound 0.1 µM, first compound 0.0316 µM
# [8] = second compound 0.1 µM, first compound 0.1 µM
# [9] = second compound 0.1 µM, first compound 0.316 µM
# [10] = second compound 0.1 µM, first compound 1 µM
# [11] = second compound 0.1 µM, first compound 3.16 µM
# [12] = second compound 0.1 µM, first compound 10 µM
# [13] = second compound 0.316 µM, first compound 0.0316 µM
# [14] = second compound 0.316 µM, first compound 0.1 µM
# [15] = second compound 0.316 µM, first compound 0.316 µM
# [16] = second compound 0.316 µM, first compound 1 µM
# [17] = second compound 0.316 µM, first compound 3.16 µM
# [18] = second compound 0.316 µM, first compound 10 µM
# [19] = second compound 1 µM, first compound 0.0316 µM
# [20] = second compound 1 µM, first compound 0.1 µM
# [21] = second compound 1 µM, first compound 0.316 µM
# [22] = second compound 1 µM, first compound 1 µM
# [23] = second compound 1 µM, first compound 3.16 µM
# [24] = second compound 1 µM, first compound 10 µM
# [25] = second compound 3.16 µM, first compound 0.0316 µM
# [26] = second compound 3.16 µM, first compound 0.1 µM
# [27] = second compound 3.16 µM, first compound 0.316 µM
# [28] = second compound 3.16 µM, first compound 1 µM
# [29] = second compound 3.16 µM, first compound 3.16 µM
# [30] = second compound 3.16 µM, first compound 10 µM
# [31] = second compound 10 µM, first compound 0.0316 µM
# [32] = second compound 10 µM, first compound 0.1 µM
# [33] = second compound 10 µM, first compound 0.316 µM
# [34] = second compound 10 µM, first compound 1 µM
# [35] = second compound 10 µM, first compound 3.16 µM
# [36] = second compound 10 µM, first compound 10 µM
# 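Also: spheroids exposed to compounds for seven days before readout.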
smiles,measurement,setting,value
C=CC(=O)N1CCN(c2nc(=O)n(-c3c(C)ccnc3C(C)C)c3nc(-c4c(O)cccc4F)c(F)cc23)C(C)C1 (stereo unspecified) + COC1C(OC(N)=O)C(O)C(Oc2ccc3c(O)c(NC(=O)c4ccc(O)c(CC=C(C)C)c4)c(=O)oc3c2C)OC1(C)C,pIC50,second compound 0.0316 µM,< 5.00
same,pIC50,second compound 0.1 µM,< 5.00
same,pIC50,second compound 0.316 µM,< 5.00
same,pIC50,second compound 1 µM,< 5.00
same,pIC50,second compound 3.16 µM,< 5.00
same,pIC50,second compound 10 µM,< 5.00
same,"viability, T/C",[1],110%
same,"viability, T/C",[2],106%
same,"viability, T/C",[3],106%
same,"viability, T/C",[4],111%
same,"viability, T/C",[5],123%
same,"viability, T/C",[6],120%
same,"viability, T/C",[7],95%
same,"viability, T/C",[8],111%
same,"viability, T/C",[9],108%
same,"viability, T/C",[10],123%
same,"viability, T/C",[11],123%
same,"viability, T/C",[12],116%
same,"viability, T/C",[13],111%
same,"viability, T/C",[14],123%
same,"viability, T/C",[15],111%
same,"viability, T/C",[16],114%
same,"viability, T/C",[17],128%
same,"viability, T/C",[18],114%
same,"viability, T/C",[19],119%
same,"viability, T/C",[20],120%
same,"viability, T/C",[21],114%
same,"viability, T/C",[22],119%
same,"viability, T/C",[23],121%
same,"viability, T/C",[24],129%
same,"viability, T/C",[25],116%
same,"viability, T/C",[26],108%
same,"viability, T/C",[27],108%
same,"viability, T/C",[28],113%
same,"viability, T/C",[29],121%
same,"viability, T/C",[30],128%
same,"viability, T/C",[31],109%
same,"viability, T/C",[32],111%
same,"viability, T/C",[33],106%
same,"viability, T/C",[34],103%
same,"viability, T/C",[35],122%
same,"viability, T/C",[36],111%
CC(C)n1c(=O)n(C)c2cnc3cc(F)c(-c4ccc(OCCCN5CCCCC5)nc4)cc3c21 + COC1C(OC(N)=O)C(O)C(Oc2ccc3c(O)c(NC(=O)c4ccc(O)c(CC=C(C)C)c4)c(=O)oc3c2C)OC1(C)C,pIC50,second compound 0.0316 µM,< 5.00
same,pIC50,second compound 0.1 µM,< 5.00
same,pIC50,second compound 0.316 µM,< 5.00
same,pIC50,second compound 1 µM,< 5.00
same,pIC50,second compound 3.16 µM,< 5.00
same,pIC50,second compound 10 µM,< 5.00
same,"viability, T/C",[1],97.6%
same,"viability, T/C",[2],92.7%
same,"viability, T/C",[3],89.8%
same,"viability, T/C",[4],89.1%
same,"viability, T/C",[5],84.7%
same,"viability, T/C",[6],70.3%
same,"viability, T/C",[7],84.4%
same,"viability, T/C",[8],110%
same,"viability, T/C",[9],88.1%
same,"viability, T/C",[10],91.9%
same,"viability, T/C",[11],79.6%
same,"viability, T/C",[12],75.3%
same,"viability, T/C",[13],92.6%
same,"viability, T/C",[14],100%
same,"viability, T/C",[15],89.8%
same,"viability, T/C",[16],102%
same,"viability, T/C",[17],87.8%
same,"viability, T/C",[18],65.9%
same,"viability, T/C",[19],104%
same,"viability, T/C",[20],104%
same,"viability, T/C",[21],96.2%
same,"viability, T/C",[22],98.1%
same,"viability, T/C",[23],81.2%
same,"viability, T/C",[24],74%
same,"viability, T/C",[25],106%
same,"viability, T/C",[26],95%
same,"viability, T/C",[27],98.2%
same,"viability, T/C",[28],79.1%
same,"viability, T/C",[29],83.5%
same,"viability, T/C",[30],69.7%
same,"viability, T/C",[31],104%
same,"viability, T/C",[32],92.5%
same,"viability, T/C",[33],93.9%
same,"viability, T/C",[34],98.1%
same,"viability, T/C",[35],83%
same,"viability, T/C",[36],68.7%
CC1COCCN1c1cc(C2(S(C)(=N)=O)CC2)nc(-c2ccnc3[nH]ccc23)n1 (stereo unspecified) + COC1C(OC(N)=O)C(O)C(Oc2ccc3c(O)c(NC(=O)c4ccc(O)c(CC=C(C)C)c4)c(=O)oc3c2C)OC1(C)C,pIC50,second compound 0.0316 µM,5.61
same,pIC50,second compound 0.1 µM,5.62
same,pIC50,second compound 0.316 µM,5.58
same,pIC50,second compound 1 µM,5.57
same,pIC50,second compound 3.16 µM,5.59
same,pIC50,second compound 10 µM,5.64
same,"viability, T/C",[1],110%
same,"viability, T/C",[2],118%
same,"viability, T/C",[3],122%
same,"viability, T/C",[4],97.5%
same,"viability, T/C",[5],36.7%
same,"viability, T/C",[6],12%
same,"viability, T/C",[7],100%
same,"viability, T/C",[8],99.2%
same,"viability, T/C",[9],118%
same,"viability, T/C",[10],111%
same,"viability, T/C",[11],31.6%
same,"viability, T/C",[12],12.8%
same,"viability, T/C",[13],110%
same,"viability, T/C",[14],103%
same,"viability, T/C",[15],117%
same,"viability, T/C",[16],111%
same,"viability, T/C",[17],39%
same,"viability, T/C",[18],11.1%
same,"viability, T/C",[19],113%
same,"viability, T/C",[20],112%
same,"viability, T/C",[21],126%
same,"viability, T/C",[22],118%
same,"viability, T/C",[23],39.5%
same,"viability, T/C",[24],10.5%
same,"viability, T/C",[25],125%
same,"viability, T/C",[26],106%
same,"viability, T/C",[27],116%
same,"viability, T/C",[28],112%
same,"viability, T/C",[29],37.1%
same,"viability, T/C",[30],12.3%
same,"viability, T/C",[31],114%
same,"viability, T/C",[32],103%
same,"viability, T/C",[33],111%
same,"viability, T/C",[34],99.9%
same,"viability, T/C",[35],30.8%
same,"viability, T/C",[36],10.7%

# — PubChem BioAssay AID1963838 (Molecular Pharmacology Branch, DTP, NCI, 2024)
